The text below walks through data of article PMC223355 (BMC Biochemistry, 2003).

In experiment [1] the target is T1, recombinant human kynureninase (Homo sapiens, UniProt Q16719).
T1 sequence (Q16719 1-465): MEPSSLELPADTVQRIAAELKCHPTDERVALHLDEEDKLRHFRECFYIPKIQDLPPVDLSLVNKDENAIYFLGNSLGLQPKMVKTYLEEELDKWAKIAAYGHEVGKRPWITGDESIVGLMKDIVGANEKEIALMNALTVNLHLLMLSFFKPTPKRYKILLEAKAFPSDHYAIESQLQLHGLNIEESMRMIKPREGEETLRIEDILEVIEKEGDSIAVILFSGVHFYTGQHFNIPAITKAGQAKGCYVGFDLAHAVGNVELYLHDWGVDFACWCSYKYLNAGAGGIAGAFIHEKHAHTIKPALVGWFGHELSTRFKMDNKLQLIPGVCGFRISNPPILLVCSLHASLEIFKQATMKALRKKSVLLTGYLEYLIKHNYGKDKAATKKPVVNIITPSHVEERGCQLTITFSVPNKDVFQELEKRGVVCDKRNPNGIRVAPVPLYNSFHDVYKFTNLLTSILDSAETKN
Briefly: Inhibition / kinetics of recombinant human kynureninase. The class given is biochemical. The settings on record: as substrate of the human enzyme.

Another experiment has as its target T2, rat hepatic kynureninase (Rattus norvegicus, UniProt P70712).
T2 sequence (P70712 1-464): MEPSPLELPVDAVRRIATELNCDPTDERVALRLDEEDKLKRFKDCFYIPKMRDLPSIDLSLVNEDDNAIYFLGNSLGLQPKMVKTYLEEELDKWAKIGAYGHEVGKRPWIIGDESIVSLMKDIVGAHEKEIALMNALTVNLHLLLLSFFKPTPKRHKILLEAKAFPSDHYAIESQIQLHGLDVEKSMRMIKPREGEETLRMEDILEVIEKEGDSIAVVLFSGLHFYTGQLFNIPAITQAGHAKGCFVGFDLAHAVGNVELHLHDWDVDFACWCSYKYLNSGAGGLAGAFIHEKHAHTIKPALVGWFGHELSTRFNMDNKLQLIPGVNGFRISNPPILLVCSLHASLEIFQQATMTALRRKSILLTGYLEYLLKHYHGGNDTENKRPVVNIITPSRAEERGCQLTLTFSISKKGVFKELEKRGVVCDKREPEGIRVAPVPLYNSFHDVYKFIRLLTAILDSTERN
The settings on record: cited from earlier work.

Experiment [2] deals with T3, kynureninase (Pseudomonas fluorescens, UniProt P83788).
T3 sequence (P83788 1-416): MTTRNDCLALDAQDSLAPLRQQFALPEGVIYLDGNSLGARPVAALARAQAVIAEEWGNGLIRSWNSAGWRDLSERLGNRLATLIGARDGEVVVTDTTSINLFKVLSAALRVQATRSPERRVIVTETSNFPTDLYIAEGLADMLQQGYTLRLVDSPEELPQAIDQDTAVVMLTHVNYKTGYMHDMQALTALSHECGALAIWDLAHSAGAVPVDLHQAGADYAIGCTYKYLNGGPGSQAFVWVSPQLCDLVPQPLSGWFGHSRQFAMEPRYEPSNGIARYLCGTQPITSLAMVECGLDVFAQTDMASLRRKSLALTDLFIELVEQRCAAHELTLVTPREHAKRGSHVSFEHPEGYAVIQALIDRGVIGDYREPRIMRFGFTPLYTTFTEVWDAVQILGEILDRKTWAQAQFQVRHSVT
The settings on record: as substrate of the Pseudomonas enzyme; cited from earlier work.

Experiment [3] addresses T1, recombinant human kynureninase. The conditions noted are these: cited from earlier work.
For experiment [4], the target named is T3, kynureninase. Briefly: Inhibition / kinetics of tryptophan-induced bacterial kynureninase. In kind it is biochemical.

Like-named read-outs stand apart in the source and are kept apart here.

As to `Nc1ccccc1C(=O)CC(N)C(=O)O` (centres unmarked) [kynurenine], the substrate activity result in experiment [1] is given as “no appreciable substrate activity”.
Regarding `Nc1ccccc1C(=O)C[C@H](N)C(=O)O` [L-kynurenine], the Km (usually the concentration of substrate that gives half-maximal velocity) on rat hepatic kynureninase (as substrate of the rat enzyme, reported values, no reference given) was 500 µM; on kynureninase [2] it was 44.2 µM.
`Nc1c(O)cc(O)cc1C(=O)CCC(=O)O` [dihydroxydesamino derivative, 3,5-dihydroxydesaminokynurenine]: the inhibition constant (Ki) (as a rule, a measure of affinity in units of concentration, obtained from inhibition or displacement) on rat hepatic kynureninase (rat enzyme (both mammalian enzymes), earlier report) was approximately 0.25 µM; in experiment [3] (recombinant human enzyme (both mammalian enzymes), earlier report) it was approximately 0.25 µM.
Regarding `Nc1ccccc1C(=O)CCC(=O)O` [desaminokynurenine], the Ki on kynureninase [4] (bacterial enzyme, unpublished results of the authors) was 12 ± 3.1 µM. Further, the type of inhibition result at kynureninase [4] (bacterial kynureninase, Lineweaver-Burk and Dixon plots) is listed as “mixed inhibitor”.
Regarding `Nc1ccccc1C(=O)CC(N)C(=O)O` [kynurenine D-enantiomer, kynurenine], the Ki in experiment [3] (human enzyme (by context)) is 12 µM.
